For series [1] the following is noted: ODN 14 compared with ODN 1; cited from earlier work.
The subject of another series is Factor VII. Kind of series: Factor VII knockdown in mice by FVII siRNA lipid particles. Type of series: in vivo. Particulars: 40/10/40/10 aminolipid/DSPC/Chol/PEG-S-DMG, IV, C57BL/6 mice, 24 hours post-injection. The procedure: Factor VII (FVII), a prominent protein in the coagulation cascade, is synthesized in the liver (hepatocytes) and secreted into the plasma. FVII levels in plasma can be determined by a simple, plate-based colorimetric assay. As such, FVII represents a convenient model for determining siRNA-mediated downregulation of hepatocyte-derived proteins, as well as monitoring plasma concentrations and tissue distribution of the nucleic acid lipid particles and siRNA.
FVII activity was evaluated in FVII siRNA-treated animals at 24 hours after intravenous (bolus) injection in C57BL/6 mice. FVII was measured using a commercially available kit (Biophen FVII Kit™; Aniara Corp., Mason, Ohio), following the manufacturer's instructions at a microplate scale. FVII reduction was determined against untreated control mice, and the results were expressed as % Residual FVII. […]
The MTD for these studies was set as the lowest dose causing >7% decrease in body weight and a>200-fold increase in alanine aminotransferase (ALT), a clinical chemistry marker with good specificity for liver damage in rodents. The ED50 was determined from FVII dose-activity curves.
The ability of various lipid formulations to knockdown Factor VII expression was determined in a liver model using Factor VII siRNA, in order to evaluate the impact of aminolipid linker chemistry. […]

Regarding “5′-AACC GTT GAG GGG CAT-3′ (DNA AACCGTTGAGGGGCAT; DNA, backbone and methylation of C not given here) [ODN 14]”, the “immunostimulatory / biological activity” value in series [1] is “ODN 14 is a 15-mer oligonucleotide and ODN 1 is the same oligonucleotide having a thymidine added onto the 5′ end making ODN 1 into a 16-mer. No difference in biological activity between ODN 14 and ODN 1 has been detected and both exhibit similar immunostimulatory activity (Mui et al., 2001)”. On to “5′-TAACGTTGAGGGGCAT-3 (DNA, backbone and methylation of C not given here) [ODN 1]”, for which the “immunostimulatory / biological activity” value in series [1] is “ODN 14 is a 15-mer oligonucleotide and ODN 1 is the same oligonucleotide having a thymidine added onto the 5′ end making ODN 1 into a 16-mer. No difference in biological activity between ODN 14 and ODN 1 has been detected and both exhibit similar immunostimulatory activity (Mui et al., 2001)”. Turning to `CCCCC/C=C\C/C=C\CCCCCCCCC1(CCCCCCCC/C=C\C/C=C\CCCCC)OCC(CN(C)C)O1` (stereo not shown) [DLin-K-DMA, 2,2-Dilinoleyl-4-dimethylaminomethyl-[1,3]-dioxolane], in the series with Factor VII, the “improvement of dose (mg/kg) to achieve 50% Factor VII reduction versus ester linkage (DLinDAP lipid)” value was “approximately 100 -fold” and the “improvement of dose (mg/kg) to achieve 50% Factor VII reduction versus ether linkage (DLinDMA lipid)” value is recorded as “approximately 10 -fold”.

These data come from patent US20110117125A1, “COMPOSITIONS AND METHODS FOR THE DELIVERY OF NUCLEIC ACIDS” (TEKMIRA PHARMACEUTICALS CORPORATION, priority 2008, published 2011).
